Assay results published in paper PMC5430874 (Scientific Reports, 2017).
Numbering of substitutions follows the chain as printed.

Columns and labels:
Assay type in all cases: cell-based
[1] = target: T1, GPR139 E108A3x29 +E105A3x32 (Homo sapiens, UniProt Q6DWJ6, E105A/E108A); test: Fluo-4 Ca2+-assay, GPR139 double mutant E105A_E108A
T1 construct: mGluR5 signal peptide (N); expressed in transfected cells; host or cells: HEK293
T1 sequence (Q6DWJ6 2-353 E105A/E108A limits assumed): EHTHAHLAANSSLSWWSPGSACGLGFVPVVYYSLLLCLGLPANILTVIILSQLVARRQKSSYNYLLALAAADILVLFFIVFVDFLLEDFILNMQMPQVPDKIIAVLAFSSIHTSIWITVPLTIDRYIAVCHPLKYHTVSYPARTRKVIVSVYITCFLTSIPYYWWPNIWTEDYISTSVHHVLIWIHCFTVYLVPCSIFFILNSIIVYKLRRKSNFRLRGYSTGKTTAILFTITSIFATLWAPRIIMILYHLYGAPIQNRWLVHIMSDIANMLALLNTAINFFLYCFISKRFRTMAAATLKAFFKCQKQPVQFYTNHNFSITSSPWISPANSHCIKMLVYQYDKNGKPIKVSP
Source text: (§1) To study the influence of specific amino acids in the predicted binding pocket on receptor function, the desired mutations were introduced into an N-terminally c-myc-tagged wild type human GPR139 (NM_001002911.3) in the pEGFP-N1 vector (BD Biosciences)[32], [33]. As previously described, these plasmids carry the signal peptide of mGluR5 to promote cell surface expression followed by a c-myc epitope to enable detection of total and surface expression by ELISA, followed by an engineered MluI and NotI site for easy insertion of the receptor of interest. Furthermore, the start-codon in the GPR139 sequence was deleted to ensure c-myc-tagging. […]
(§2) The Ca^2+ measurements were preformed using the Fluo-4 NW Calcium Assay Kit (Invitrogen, Molecular Probes, F36206) as previously described. […] Intracellular calcium changes were recorded as indicated on either a NOVOstar (BMG Labtech) at 37 °C with an excitation filter of 485 nm and an emission filters 520 nm or a FlexStation 3 Benchtop Multi-Mode Microplate Reader (Molecular Devices) at 37 °C with an excitation wavelength of 485 nm and emission of 525 nm.
(§3) All pharmacological data have been analyzed by using Prism 6.0 (GraphPad Software Inc., San Diego). […] Changes in potency (pEC50) and span of myc-GPR139(WT) in comparison to untagged GPR139(WT) was statistically analyzed with a paired t-test and significance was accepted at p < 0.05. […]

[2] = target: T2, GPR139 H251A6x58 (Homo sapiens, UniProt Q6DWJ6, H251A); test: Fluo-4 Ca2+-assay, GPR139 mutant H251A
T2 construct: mGluR5 signal peptide (N); expressed in transfected cells; host or cells: HEK293
T2 sequence (Q6DWJ6 2-353 H251A limits assumed): T1 sequence (Q6DWJ6 2-353 E105A/E108A limits assumed) with A104E, A107E, H250A
Source text: as §1, §2, §3

[3] = target: T3, GPR139 E105A3x29 (Homo sapiens, UniProt Q6DWJ6, E105A); test: Fluo-4 Ca2+-assay, GPR139 mutant E105A
T3 construct: mGluR5 signal peptide (N); expressed in transfected cells; host or cells: HEK293
T3 sequence (Q6DWJ6 2-353 E105A limits assumed): T1 sequence (Q6DWJ6 2-353 E105A/E108A limits assumed) with A107E
Source text: as §1, §2, §3

EC50 [1]: 200 nM
Emax ([1]; normalized to buffer (0%) and 8 µM 1a (100%)): 196 ± 25%
EC50 ([2]; H251A mutant): 813 nM
Emax ([2]; H251A, normalized to buffer (0%) and 8 µM 1a (100%)): 84 ± 11%
EC50 ([3]; E105A mutant): 129 nM
Emax ([3]; E105A, normalized to buffer (0%) and 8 µM 1a (100%)): 288 ± 27%
SMILES: COc1cc(OC)cc(C(=O)NNC(=O)Nc2cccc3ccccc23)c1 [Compound 1a]
